From DBAASP
Values after ≈ are worked out from the molar mass of the structure shown.

Experiments:
Assay in all cases: ≥ marks a high value that may be exact or a test limit, other limits are often not marked, values filed in µg/mL are converted to µM
[1] = tested on: Pseudomonas aeruginosa ATCC 27853
[2] = tested on: Staphylococcus aureus ATCC 29313
[3] = tested on: Escherichia coli ATCC 25922
[4] = tested on: Xanthomonas axonopodis pv. glycines ISBF 327
[5] = tested on: Staphylococcus aureus ATCC 25923
[6] = tested on: Legionella pneumophila ATCC 33155
Saccharomyces cerevisiae = tested on: Saccharomyces cerevisiae
[7] = tested on: Enterococcus faecalis ATCC 29212
[8] = tested on: Streptococcus pyogenes ATCC 19615
[9] = tested on: Legionella pneumophila Paris
[10] = tested on: Staphylococcus aureus ATCC 43300
Escherichia coli ML-35p = tested on: Escherichia coli ML-35p
[11] = tested on: Candida parapsilosis ATCC 22019
[12] = tested on: Candida albicans ATCC 90028
[13] = tested on: Acinetobacter baumannii ATCC 19606
[14] = tested on: Salmonella enterica subsp. enterica serovar Enteritidis
[15] = tested on: Legionella longbeachae ATCC 33484
Listeria ivanovii = tested on: Listeria ivanovii
[16] = tested on: Leishmania infantum (promastigote)
[17] = tested on: Staphylococcus aureus ST1065
[18] = tested on: Klebsiella pneumoniae ATCC 13883
[19] = tested on: Staphylococcus aureus ATCC BAA-44
[20] = tested on: Legionella feeleii ATCC 35072
[21] = tested on: Erwinia amylovora PMV 6076
[22] = tested on: Xanthomonas campestris pv. Vesicatoria 2133-2
[23] = tested on: Pseudomonas syringae pv. syringae EPS 94
[24] = tested on: Staphylococcus epidermidis ATCC 35984
[25] = tested on: Staphylococcus aureus ATCC 33591
[26] = tested on: Escherichia coli K12 MG1655
[27] = tested on: Staphylococcus aureus 68 HER 1049
[28] = tested on: Escherichia coli PTCC 2433
[29] = tested on: Klebsiella pneumoniae PTCC 4231
Aspergillus fumigatus = tested on: Aspergillus fumigatus
Aspergillus niger = tested on: Aspergillus niger
[30] = tested on: Bacillus subtilis PTCC 4533
Candida albicans = tested on: Candida albicans
[31] = tested on: Pseudomonas aeruginosa PTCC 2834
[32] = tested on: Bacillus cereus PTCC 1435
[33] = tested on: Leuconostoc mesenteroides PTCC 1445
[34] = tested on: Candida albicans ATCC 2002
Escherichia coli IS37# = tested on: Escherichia coli IS37#
[35] = tested on: Pseudomonas aeruginosa CMCCB 1010
[36] = tested on: Enterobacter cloacae ATCC 13047
Escherichia coli IS117# = tested on: Escherichia coli IS117#
[37] = tested on: Klebsiella pneumoniae ATCC 700603
[38] = tested on: Klebsiella pneumoniae IS59#
Shigella dysenteriae = tested on: Shigella dysenteriae

What does the source list for `CC[C@H](C)[C@H](NC(=O)[C@H](C)NC(=O)[C@H](C)NC(=O)[C@H](C)NC(=O)[C@H](C)NC(=O)[C@H](C)NC(=O)[C@H](C)NC(=O)[C@H](C)N)C(=O)N[C@@H](CCCCN)C(=O)N[C@@H](CCSC)C(=O)N[C@@H](CC(C)C)C(=O)N[C@@H](CCSC)C(=O)N[C@@H](CC(=O)O)C(=O)N[C@@H](CC(C)C)C(=O)N[C@H](C(=O)N[C@@H](CC(N)=O)C(=O)N[C@@H](CCC(=O)O)C(=O)N[C@@H](CCCN=C(N)N)C(=O)N[C@H](C(=O)N[C@@H](CCSC)C(=O)N[C@@H](C)C(=O)N[C@@H](CC(C)C)C(=O)N[C@@H](CC(N)=O)C(=O)N[C@@H](CCCCN)C(=O)N[C@@H](CCCCN)C(=O)N[C@@H](C)C(=O)N[C@@H](CCCCN)C(=O)N[C@@H](CCCCN)C(N)=O)[C@@H](C)CC)C(C)C` [AAAAAAAIKMLMDLVNERIMALNKKAKK]?
MIC [1]: 20 µM (≈ 59.7 µg/mL); MIC [2]: 20 µM (≈ 59.7 µg/mL); MIC [3]: 10 µM (≈ 29.8 µg/mL); MIC [4]: 1 µM (≈ 2.98 µg/mL)

Which results are given for `CC[C@H](C)[C@H](NC(=O)CNC(=O)[C@H](CCCCN)NC(=O)[C@H](CC(C)C)NC(=O)[C@@H](N)Cc1ccccc1)C(=O)N[C@H](C(=O)NCC(=O)N[C@@H](CCSC)C(=O)N[C@@H](CC(C)C)C(=O)NCC(=O)N[C@@H](CCCCN)C(=O)N[C@@H](CC(C)C)C(=O)N[C@@H](Cc1ccccc1)C(N)=O)C(C)C` [FLKGIVGMLGKLF]?
MIC [5]: 3 µM (≈ 4.27 µg/mL); MIC [6]: 3.12 µM (≈ 4.44 µg/mL); MIC (Saccharomyces cerevisiae): 3 µM (≈ 4.27 µg/mL); MIC [7]: 6 µM (≈ 8.53 µg/mL); MIC [1]: 6 µM (≈ 8.53 µg/mL); MIC [8]: 1 µM (≈ 1.42 µg/mL); MIC [9]: 3.12 µM (≈ 4.44 µg/mL); MIC [10]: 3 µM (≈ 4.27 µg/mL); MIC (Escherichia coli ML-35p): 3 µM (≈ 4.27 µg/mL); MIC [11]: 25 µM (≈ 35.5 µg/mL); MIC [12]: 6 µM (≈ 8.53 µg/mL); MIC [13]: 3 µM (≈ 4.27 µg/mL); MIC [14]: 6 µM (≈ 8.53 µg/mL); MIC [15]: 3.12 µM (≈ 4.44 µg/mL); MIC (Listeria ivanovii): 3 µM (≈ 4.27 µg/mL); MIC [16]: 10 µM (≈ 14.2 µg/mL); MIC [17]: 3 µM (≈ 4.27 µg/mL); MIC [18]: 3 µM (≈ 4.27 µg/mL); MIC [19]: 3 µM (≈ 4.27 µg/mL); MIC [20]: 3.12 µM (≈ 4.44 µg/mL); MIC [3]: 3 µM (≈ 4.27 µg/mL)

Which MIC [21] does the source give for `CC[C@H](C)[C@H](NC(=O)[C@H](CCCCN)NC(=O)[C@H](CCCCN)NC(=O)[C@H](Cc1ccccc1)NC(=O)[C@H](CC(C)C)NC(=O)[C@H](CCCCN)NC(=O)[C@H](CCCCN)NC(=O)[C@H](C)NC(=O)[C@@H]1CCCN1C(=O)CNC(=O)[C@H](C)NC(=O)[C@H](CC(C)C)NC(=O)[C@H](Cc1ccc(O)cc1)NC(=O)[C@H](CCCCN)NC(=O)[C@H](CC(C)C)NC(=O)[C@@H](NC(=O)[C@H](CCCCN)NC(=O)[C@H](CCCCN)NC(=O)[C@H](Cc1ccccc1)NC(=O)[C@H](CC(C)C)NC(=O)[C@H](CCCCN)NC(=O)[C@H](CCCCN)NC(=O)CN)[C@@H](C)CC)C(=O)N[C@@H](CC(C)C)C(=O)N[C@@H](CCCCN)C(=O)N[C@@H](Cc1ccc(O)cc1)C(=O)N[C@@H](CC(C)C)C(=O)O` [GKKLFKKILKYLAGPAKKLFKKILKYL] here?
Its MIC is 14.1 µM (≈ 45 µg/mL).

What about the MIC [22] of the same molecule?
Its MIC is 14.1 µM (≈ 45 µg/mL).

What about the MIC [23] of the same molecule?
The MIC was 8.66 µM (≈ 27.5 µg/mL).

Which MIC [5] does the source give for `CC[C@H](C)[C@H](NC(=O)[C@H](CCCCN)NC(=O)[C@@H](NC(=O)[C@H](Cc1ccccc1)NC(=O)[C@H](C)NC(=O)[C@H](CCCCN)NC(=O)CNC(=O)[C@H](Cc1ccccc1)NC(=O)[C@H](CCCCN)NC(=O)[C@@H](N)CCCCN)C(C)C)C(=O)N[C@@H](CC(C)C)C(=O)N[C@@H](CCCCN)C(N)=O` [KKFGKAFVKILK] here?
The MIC was 182 µM (≈ 256 µg/mL).

And the MIC [24]?
The MIC was no less than 64.3 µM.

What about the MIC [1] of the same molecule?
Its MIC is 16.1 µM (≈ 22.6 µg/mL).

What about the MIC [25] of the same molecule?
Its MIC is no less than 182 µM.

For `CC[C@H](C)[C@H](NC(=O)CNC(=O)[C@H](CC(C)C)NC(=O)[C@H](Cc1ccccc1)NC(=O)[C@H](CC(C)C)NC(=O)[C@H](CCCCN)NC(=O)[C@H](Cc1c[nH]c2ccccc12)NC(=O)[C@@H](N)CCCCN)C(=O)N[C@@H](CC(C)C)C(=O)N[C@@H](C)C(=O)N[C@H](C(=O)N[C@@H](CC(C)C)C(=O)N[C@@H](CCCCN)C(=O)N[C@H](C(=O)N[C@@H](CC(C)C)C(=O)O)C(C)C)C(C)C` [KWKLFLGILAVLKVL], which MIC [26] is on record?
The MIC was 18.4 µM (≈ 32 µg/mL).

What about the MIC [27] of the same molecule?
Its MIC is 18.4 µM (≈ 32 µg/mL).

For `CC[C@H](C)[C@H](NC(=O)[C@H](CO)NC(=O)[C@H](CCCCN)NC(=O)[C@H](CC(C)C)NC(=O)[C@H](CCCN=C(N)N)NC(=O)[C@@H](N)CC(C)C)C(=O)N[C@H](C(=O)N[C@@H](CO)C(=O)N[C@@H](Cc1ccc(O)cc1)C(=O)N[C@@H](C)C(=O)N[C@@H](CCCCN)C(=O)N[C@@H](CCCCN)C(=O)N[C@H](C(=O)N[C@@H](CC(C)C)C(=O)O)C(C)C)C(C)C` [LRLKSIVSYAKKVL], which MIC [28] is on record?
Its MIC is 17.5 µM (≈ 28.3 µg/mL).

What about the MIC [29] of the same molecule?
Its MIC is 16.5 µM (≈ 26.7 µg/mL).

What about the MIC (Aspergillus fumigatus) of the same molecule?
Its MIC is 11.9 µM (≈ 19.3 µg/mL).

What about the MIC (Aspergillus niger) of the same molecule?
Its MIC is 15.2 µM (≈ 24.6 µg/mL).

What about the MIC [30] of the same molecule?
Its MIC is 10.9 µM (≈ 17.6 µg/mL).

And the MIC (Candida albicans)?
Its MIC is 12.6 µM (≈ 20.4 µg/mL).

And the MIC [31]?
Its MIC is 15 µM (≈ 24.2 µg/mL).

What about the MIC [32] of the same molecule?
Its MIC is 9.33 µM (≈ 15.1 µg/mL).

What about the MIC [33] of the same molecule?
The MIC was 12.2 µM (≈ 19.8 µg/mL).

With `C[C@@H](O)[C@@H]1NC(=O)CNC(=O)[C@H](CCCCN)NC(=O)[C@H](Cc2ccccc2)NC(=O)[C@@H](NC(=O)[C@H](Cc2ccccc2)NC(=O)[C@@H](N)CCCN=C(N)N)CSSC[C@@H](C(=O)NCC(=O)O)NC(=O)[C@@H]2CCCN2C1=O` [RFCFKGTPCG] as the molecule, how does the MIC [5] read?
Its MIC is 4.48 µM (≈ 4.99 µg/mL).

And the MIC [34]?
The MIC was 17.9 µM (≈ 20 µg/mL).

And the MIC [7]?
The MIC was 17.9 µM (≈ 20 µg/mL).

And the MIC (Escherichia coli IS37#)?
Its MIC is no less than 44.8 µM.

What about the MIC [35] of the same molecule?
The MIC was no less than 44.8 µM.

What about the MIC [11] of the same molecule?
Its MIC is 17.9 µM (≈ 20 µg/mL).

What about the MIC [36] of the same molecule?
Its MIC is 8.97 µM (≈ 9.98 µg/mL).

What about the MIC [12] of the same molecule?
Its MIC is 17.9 µM (≈ 20 µg/mL).

And the MIC (Escherichia coli IS117#)?
The MIC was no less than 44.8 µM.

And the MIC [37]?
The MIC was 17.9 µM (≈ 20 µg/mL).

What about the MIC [38] of the same molecule?
Its MIC is no less than 44.8 µM.

What about the MIC (Shigella dysenteriae) of the same molecule?
Its MIC is 17.9 µM (≈ 20 µg/mL).

And the MIC [3]?
The MIC was 8.97 µM (≈ 9.98 µg/mL).
